From patent US9809621B2, “Stable peptide-based PACE4 inhibitors” (SOCPRA SCIENCES SANTÉ ET HUMAINES S.E.C., priority 2011, dated 2017) come the findings set out here.

The Ki is a dissociation constant, usually derived from enzyme kinetics or from competition with a known ligand. What is called half-life is how long it takes for the measured level to halve. Higher therefore signals slow decline. Usually share remaining stands for the share of the starting amount still present when the sample was taken.

Several values for one entry are separate records, joined by “and”; a condition that tells them apart may be missing. Identical values can stand only once. Like-named read-outs stand apart in the source and are kept apart here. Numbered stars: 1 amine (or outer) side, 2 acyl side, 3 side chain; on linkers, the order of the positions; unused ones are H or OH. Square brackets hold non-standard residues; d marks the D form. Peptide text beside a SMILES is read from it. * marks the point of attachment. X3 = CC(C)C[C@H](N[*:1])c1cn([C@@H](CC(C)C)C(=O)[*:2])nn1; X5 = CC(C)C/C(=C\C[C@H](CC(C)C)N[*:1])C(=O)[*:2]; NH(4-amidinobenzyl) = N=C(N)c1ccc(CN*)cc1; PEG8 = NCCOCCOCCOCCOCCOCCOCCOCCOCCC(=O)O; X1 = CC(C)CN(CC(=O)[*:2])N[*:1]; X4 = N=C(N)NCCCN(CC(N)=O)N*; Nle = CCCC[C@H](N)C(=O)O; X2 = N=C(N)NC/C=C/CN*

One data set deals with LNCaP cells. The note with it: MTT.
Another data set has as its system DU145 cells. The note with it: MTT; for Anti-proliferative activity in DU145 cells (in words): FIG. 1C, FIG. 7.
The next data set has as its target T1, PACE4 (Homo sapiens, UniProt P29122).
T1 sequence (P29122 150-969): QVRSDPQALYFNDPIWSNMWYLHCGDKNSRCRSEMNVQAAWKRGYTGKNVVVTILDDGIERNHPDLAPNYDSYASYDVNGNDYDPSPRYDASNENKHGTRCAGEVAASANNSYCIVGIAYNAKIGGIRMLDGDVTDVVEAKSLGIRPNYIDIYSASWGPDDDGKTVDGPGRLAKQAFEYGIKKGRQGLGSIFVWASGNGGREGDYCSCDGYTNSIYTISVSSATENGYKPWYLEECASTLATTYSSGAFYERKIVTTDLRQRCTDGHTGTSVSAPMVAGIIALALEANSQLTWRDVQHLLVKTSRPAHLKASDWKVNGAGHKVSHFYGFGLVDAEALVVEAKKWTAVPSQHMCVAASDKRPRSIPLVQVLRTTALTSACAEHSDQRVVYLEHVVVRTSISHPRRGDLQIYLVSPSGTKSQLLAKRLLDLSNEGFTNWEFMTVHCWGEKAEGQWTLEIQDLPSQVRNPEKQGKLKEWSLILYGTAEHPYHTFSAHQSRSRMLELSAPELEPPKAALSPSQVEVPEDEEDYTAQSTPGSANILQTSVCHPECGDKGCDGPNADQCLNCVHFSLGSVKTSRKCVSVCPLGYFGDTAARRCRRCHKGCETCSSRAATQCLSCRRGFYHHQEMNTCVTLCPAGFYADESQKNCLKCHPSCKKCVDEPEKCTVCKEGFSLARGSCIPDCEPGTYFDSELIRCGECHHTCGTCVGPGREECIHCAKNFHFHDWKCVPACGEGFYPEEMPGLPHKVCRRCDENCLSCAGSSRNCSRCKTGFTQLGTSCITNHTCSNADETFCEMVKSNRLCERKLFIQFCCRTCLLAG
In words: Inhibition constant (Ki) for PACE4. The format is biochemical.

The target in the next data set is furin (Homo sapiens, UniProt P09958). In words: Inhibition constant (Ki) for furin. Particulars: read-out: Ki for furin. The format is biochemical.
Sequence of furin (P09958 108-794): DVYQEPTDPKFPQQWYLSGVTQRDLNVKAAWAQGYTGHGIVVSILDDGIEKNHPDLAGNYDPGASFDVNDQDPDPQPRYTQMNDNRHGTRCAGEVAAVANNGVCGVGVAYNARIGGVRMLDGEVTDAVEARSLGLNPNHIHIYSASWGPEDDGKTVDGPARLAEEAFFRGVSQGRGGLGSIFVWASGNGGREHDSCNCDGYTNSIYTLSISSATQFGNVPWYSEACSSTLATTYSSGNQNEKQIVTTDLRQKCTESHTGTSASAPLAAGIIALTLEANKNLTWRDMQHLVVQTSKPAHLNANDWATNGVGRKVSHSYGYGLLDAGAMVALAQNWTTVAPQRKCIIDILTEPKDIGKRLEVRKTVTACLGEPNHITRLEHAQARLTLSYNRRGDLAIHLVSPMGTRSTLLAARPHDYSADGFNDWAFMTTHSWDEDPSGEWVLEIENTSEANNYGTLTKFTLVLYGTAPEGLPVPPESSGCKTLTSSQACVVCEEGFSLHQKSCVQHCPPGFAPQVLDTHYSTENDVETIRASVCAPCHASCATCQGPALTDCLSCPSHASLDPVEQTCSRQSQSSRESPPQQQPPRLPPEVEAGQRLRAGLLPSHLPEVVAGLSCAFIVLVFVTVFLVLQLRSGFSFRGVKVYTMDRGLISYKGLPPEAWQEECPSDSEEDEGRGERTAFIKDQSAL
The nature of data set [1]: Plasmatic half-life / degradation by plasmatic protease. The data set is classed as in vitro ADME. The note with it: plasma. Here is the method: (§1) Multiple multi-Leu variants described in Table 1 were tested for their stability following incubation with DU145 cells, wherein their cellular stability and plasmatic half-life was measured.
Stabilisation strategy for multi-Leu variants was also assessed in presence of plasmatic protease. 8 variants protected at their N-terminal leucines were tested in order to establish their level of degradation since it is expected that N-terminal degradation will occur in absence of any modifications other than acetylation. Variants tested with azaβ3-leucine at each individual position and “click” bonds between the different leucines of the N-terminal part of the variants were protected against degradation (see FIG. 3 for modifications).

Data set [2] is described as follows: Stability following incubation with DU145 cells. The data set is classed as in vitro ADME, human. The note with it: human, DU145 cells, Table 1, read-out: Stability (% remaining after 48 h). Here is the method:
as §1
Consequently, the multi-Leu peptide was further modified by the addition of amino acid analogues and/or with pseudo peptide bounds which increase the protection of the modified peptides from peptidase and protease degradation. Gains in stability were also measured in vitro in tumoral prostatic human cells (DU145). Increase in stability of the variants was also measured in vivo (FIG. 4).

The test system of a further data set is LNCaP tumors. In words: Intratumoral treatment of LNCaP tumors in immunosuppressed mice.
The mark [3] stands for this setting: Table 1, read-out: Ki for PACE4.

As for `CC(=O)N[C@@H](CC(C)C)C(=O)N[C@@H](CC(C)C)C(=O)N[C@@H](CC(C)C)C(=O)N[C@@H](CC(C)C)C(=O)N[C@@H](CCCNC(=N)N)C(=O)N[C@H](C(=O)N[C@@H](CCCCN)C(=O)N[C@H](CCCNC(=N)N)C(N)=O)C(C)C` [Ac-LLLLRVK-[DArg]-NH2] (Ac-LLLLRVK[dR]-NH2), the “Anti-proliferative activity in LNCaP cells (in words)” value in the data set with LNCaP cells (FIG. 1D) is reported as “poorly”. For the same molecule, the IC50 was 389000 ± 12000 nM with LNCaP cells (read-out: IC50 cellular proliferation LNCaP, FIG. 1B/1D) and 439000 ± 82000 nM in the data set with DU145 cells (read-out: IC50 cellular proliferation DU145, FIG. 1B/1C). Further, the “Anti-proliferative activity in DU145 cells (in words)” value with DU145 cells is “poorly”. Besides, the inhibition constant (Ki) on PACE4 (read-out: Ki for PACE4) was found to be 1380 nM; at furin, 2600 nM.
As for `CC(=O)N[C@@H](CC(C)C)C(=O)N[C@@H](CC(C)C)C(=O)N[C@@H](CC(C)C)C(=O)N[C@@H](CC(C)C)C(=O)N[C@@H](CCCNC(=N)N)C(=O)N[C@H](C(=O)N[C@@H](CCCCN)C(=O)NCc1ccc(C(=N)N)cc1)C(C)C` [ML-[AMBA]^P1, Ac-LLLLRVK-[AMBA]] (Ac-LLLLRVK-{NH(4-amidinobenzyl)}), the “Anti-proliferative activity in DU145 cells (in words)” value in the data set with DU145 cells is listed as “IC50 lower than the IC50 of the multi-Leu control”.
In turn, `CC(=O)NN(CC(=O)N[C@@H](CC(C)C)C(=O)N[C@@H](CC(C)C)C(=O)N[C@@H](CC(C)C)C(=O)N[C@@H](CCCNC(=N)N)C(=O)N[C@H](C(=O)N[C@@H](CCCCN)C(=O)N[C@@H](CCCNC(=N)N)C(N)=O)C(C)C)CC(C)C` [ML[Azaβ3L]^P8] showed a half-life in data set [1] (Table 1) of 2.5 ± 0.1 h. Moreover, the fraction remaining at 48 h in data set [2] came out at 83%.
Consider `CC(=O)N[C@@H](CC(C)C)C(=O)N[C@@H](CC(C)C)C(=O)N[C@@H](CC(C)C)C(=O)N[C@@H](CC(C)C)C(=O)N[C@@H](CCCNC(=N)N)C(=O)N[C@H](C(=O)N[C@@H](CCCCN)C(=O)NN(CCCNC(=N)N)CC(N)=O)C(C)C` [ML[Azaβ3R]^P1, Ac-LLLLRVK[Azaβ3R]-NH2] (Ac-LLLLRVK-X4), for which the half-life in data set [1] (Table 1) was 5.39 ± 0.08 h. In addition, the inhibitory constant (Ki) on PACE4 (setting [3]) was 460 nM.
Turning to `CCCC[C@H](NC(C)=O)C(=O)N[C@@H](CCCC)C(=O)N[C@@H](CC(C)C)C(=O)N[C@@H](CCCC)C(=O)N[C@@H](CCCN=C(N)N)C(=O)N[C@H](C(=O)N[C@@H](CCCCN)C(=O)N[C@@H](CCCN=C(N)N)C(N)=O)C(C)C` [ML[Nle]^P5-6-8, Ac-[Nle][Nle]L[Nle]RVKR-NH2], the share remaining at 48 h in data set [2] was found to be 41%. The molecule also came in with an inhibition constant Ki on PACE4 (Ki for PACE4, Table 1) of 85 nM.
Regarding `CCCC[C@H](NC(=O)[C@H](CC(C)C)NC(=O)[C@H](CC(C)C)NC(=O)[C@H](CC(C)C)NC(C)=O)C(=O)N[C@@H](CCCN=C(N)N)C(=O)N[C@H](C(=O)N[C@@H](CCCCN)C(=O)N[C@@H](CCCN=C(N)N)C(N)=O)C(C)C` [ML[Nle]^P5] (Ac-LLL[Nle]RVKR-NH2), on PACE4 (setting [3]), the inhibition constant (Ki) is 17 nM and 37 nM.
On PACE4 (Ki for PACE4, Table 1), `CCCC[C@H](NC(C)=O)C(=O)N[C@@H](CCCC)C(=O)N[C@@H](CCCC)C(=O)N[C@@H](CCCC)C(=O)N[C@@H](CCCNC(=N)N)C(=O)N[C@H](C(=O)N[C@@H](CCCCN)C(N)=O)C(C)C` [ML[Nleu]^P5-6-7-8, Ac-[Nle][Nle][Nle][Nle]RVK-NH2] (Ac-[Nle][Nle][Nle][Nle]RVK-NH2) registered a Ki of 344 nM.
Consider `CC(=O)N[C@H](C/C=C(\CC(C)C)C(=O)N[C@@H](CC(C)C)C(=O)N[C@@H](CC(C)C)C(=O)N[C@@H](CCCNC(=N)N)C(=O)N[C@H](C(=O)N[C@@H](CCCCN)C(=O)N[C@@H](CCCNC(=N)N)C(N)=O)C(C)C)CC(C)C` [ML[c-ene]^P8-P7, Ac-L═LLLRVKR-NH2] (Ac-[X5]LLRVKR-NH2), for which the half-life in data set [1] (Table 1) is about 7.4 h.
`CC(=O)N[C@@H](CC(C)C)C(=O)N[C@@H](CC(C)C)c1cn([C@@H](CC(C)C)C(=O)N[C@@H](CC(C)C)C(=O)N[C@@H](CCCNC(=N)N)C(=O)N[C@H](C(=O)N[C@@H](CCCCN)C(=O)N[C@@H](CCCNC(=N)N)C(N)=O)C(C)C)nn1` [ML[click]^P7-P6, Ac-LL[click]LLRVKR-NH2] (Ac-L[X3]LRVKR-NH2) had a half-life in data set [1] (Table 1) of 1 ± 0.2 h. The inhibition constant Ki on PACE4 (setting [3]) came out at 600 nM.
`CC(=O)N[C@@H](CC(C)C)c1cn([C@@H](CC(C)C)C(=O)N[C@@H](CC(C)C)C(=O)N[C@@H](CC(C)C)C(=O)N[C@@H](CCCNC(=N)N)C(=O)N[C@H](C(=O)N[C@@H](CCCCN)C(=O)N[C@@H](CCCNC(=N)N)C(N)=O)C(C)C)nn1` [ML[click]^P8-P7, Ac-L[click]LLLRVKR-NH2] (Ac-[X3]LLRVKR-NH2) had a half-life in data set [1] (Table 1) of 4 ± 0.5 h. Further, the amount remaining at 48 h in data set [2] stood at 52%. In addition, the Ki at PACE4 (setting [3]) amounted to 37 nM.
Turning to `CC(=O)NN(CC(=O)N[C@@H](CC(C)C)C(=O)N[C@@H](CC(C)C)C(=O)N[C@@H](CC(C)C)C(=O)N[C@@H](CCCNC(=N)N)C(=O)N[C@H](C(=O)N[C@@H](CCCCN)C(=O)NC/C=C/CNC(=N)N)C(C)C)CC(C)C` [[Azaβ3L]^P8-ML-[ΔR-CO2]^P1, Ac-[Azaβ3L]LLLRVKR-[ΔR-COO]] (Ac-[X1]LLLRVK-X2), the half-life in data set [1] (Table 1) and in data set [1] (Table 2) was 5.67 ± 0.07 h each time. In addition, the “Anti-proliferative activity in DU145 cells (in words)” value in the data set with DU145 cells is given as “IC50 lower than the IC50 of the multi-Leu control”.
`CC(=O)N[C@H](CC(C)C)C(=O)N[C@@H](CC(C)C)C(=O)N[C@@H](CC(C)C)C(=O)N[C@@H](CC(C)C)C(=O)N[C@@H](CCCNC(=N)N)C(=O)N[C@H](C(=O)N[C@@H](CCCCN)C(=O)NCc1ccc(C(=N)N)cc1)C(C)C` [[D-Leu]^P8-ML-[AMBA]^P1, Ac-[D-Leu]-LLLRVK-[AMBA]] (Ac-[dL]LLLRVK-{NH(4-amidinobenzyl)}): the half-life in data set [1] (Table 1) and in data set [1] (Table 2) was 11.3 h in each case. For the same molecule, the “Plasmatic concentration of PSA (in words)” value in the data set with LNCaP tumors (LNCaP tumors, FIG. 9) is “decreased”. Further, in the data set on LNCaP tumors (excised LNCaP tumors, FIG. 10A), the “Appearance of excised tumors (in words)” value was “smaller and have a white appearance”. Also, in the data set with LNCaP tumors (immunocytochemistry, vs ML-peptide treated and untreated tumors, FIG. 10B), the “Level of p27KIP in excised tumors (in words)” value was “increased”. The “Level of Ki67 in excised tumors (in words)” value in the data set on LNCaP tumors (immunocytochemistry, vs ML-peptide treated and untreated tumors, FIG. 10C) is listed as “decreased”. In the data set on LNCaP tumors (intratumorally 50 μg/48 h, LNCaP tumors, immunosuppressed mice, FIG. 8), the “Tumor volume (in words)” value was “consistently the more potent compound”.
Turning to `CC(=O)NCCOCCOCCOCCOCCOCCOCCOCCOCCC(=O)N[C@@H](CC(C)C)C(=O)N[C@@H](CC(C)C)C(=O)N[C@@H](CC(C)C)C(=O)N[C@@H](CC(C)C)C(=O)N[C@@H](CCCNC(=N)N)C(=O)N[C@H](C(=O)N[C@@H](CCCCN)C(=O)N[C@@H](CCCNC(=N)N)C(N)=O)C(C)C` [[H2N-PEG8]-ML, Ac-[HN-PEG8]-LLLLRVKR-NH2] (Ac-[PEG8]LLLLRVKR-NH2), in data set [1] (Table 1), the half-life is 1.3 ± 0.2 h. Further, in data set [2], the fraction remaining at 48 h was 64%.
“Ac-LLLSRVKR-NH2 [ML[Ser]-P5, Ac-LLLSRVKR-NH2]”: in data set [1] (Table 1), the half-life was 2.32 ± 0.04 h. The share remaining at 48 h in data set [2] was 88%. This molecule yielded an inhibitory constant (Ki) at PACE4 (Ki for PACE4, Table 1) of 11 nM.
